Data set [1] relates to HepG2. Kind of data set: Cytotoxicity against human HepG2 cells assessed as cell viability after 48 hrs by MTS assay. It is filed as cell-based. The conditions noted are these: HepG2, 48 h.
The nature of data set [2]: Aqueous solubility of compound in distilled water at 0.2 mg/ml after 24 hrs by HPLC analysis. It is filed as physicochemical.
The nature of data set [3]: Selectivity index, ratio of IC50 for human HepG2 cells to MIC>99 for Mycobacterium tuberculosis CNCTC My 331/88. The format is toxicity, cell-based. The conditions noted are these: read-out: Selectivity Index.
The subject of data set [4] is Mycobacterium tuberculosis. Description: Antimycobacterial activity against Mycobacterium tuberculosis CNCTC My 331/88 after 21 days by microdilution method. It is filed as functional. Particulars: CNCTC My 331/88, 504 h. (Dilution methods test growth across graded concentrations, often in twofold steps.)
Data set [5] concerns Staphylococcus aureus. Description: Antibacterial activity against methicillin-resistant Staphylococcus aureus H 5996/08 after 24 to 48 hrs by broth microdilution method. It is filed as functional.
Data set [6] deals with Pseudomonas aeruginosa. Description: Antibacterial activity against Pseudomonas aeruginosa ATCC 9027 after 24 to 48 hrs by broth microdilution method. It is filed as functional.
The nature of data set [7]: Cytotoxicity against human HuH7 cells assessed as cell viability at 20 uM after 48 hrs by MTS assay. Particulars: read-out: Activity. It is filed as cell-based, Huh-7.
Data set [8] deals with Enterococcus faecalis. Kind of data set: Antibacterial activity against Enterococcus faecalis J 14365/08 after 24 to 48 hrs by broth microdilution method. The format is functional.
Data set [9] can be described thus: Cytotoxicity against human HuH7 cells assessed as cell viability after 48 hrs by MTS assay. Particulars: Huh-7, 48 h. It is filed as cell-based. A general note: Tetrazolium dyes change colour on reduction, which living cells bring about.
Data set [10] can be described thus: Cytotoxicity against human HuH7 cells assessed as cell viability after 24 hrs by MTS assay. The format is cell-based. The conditions noted are these: Huh-7, 24 h.
The test system of data set [11] is Mycobacterium tuberculosis. Description: Antimycobacterial activity against Mycobacterium tuberculosis CNCTC My 331/88 after 14 days by microdilution method. It is filed as functional. The conditions noted are these: CNCTC My 331/88, 336 h.
For data set [12], the system named is Mycobacterium tuberculosis. Kind of data set: Antimycobacterial activity against Mycobacterium tuberculosis H37Ra assessed as growth inhibition at 1 ug/ml preincubated for 1 hr followed by radiolabeling with [14C]-uracil, [14C]-methionine for 24 hrs. It is filed as functional, organism-based.
Data set [13] concerns Mycobacterium tuberculosis. Description: Antimycobacterial activity against Mycobacterium tuberculosis H37Ra assessed as growth inhibition at 0.5 ug/ml preincubated for 24 hrs followed by radiolabeling with [14C]-acetate for 24 hrs. It is filed as functional. Particulars: read-out: GI.
The subject of data set [14] is Candida tropicalis. Kind of data set: Antifungal activity against Candida tropicalis 156 after 24 to 48 hrs by broth microdilution method. The format is functional.
The subject of data set [15] is Pichia kudriavzevii. Kind of data set: Antifungal activity against Candida krusei E28 after 24 to 48 hrs by broth microdilution method. It is filed as functional.
Data set [16] is described as follows: Cytotoxicity against MDCK2-MDR1 cells assessed as cell viability after 24 hrs by MTS assay. It is filed as ADME, cell-based. The conditions noted are these: Canis lupus familiaris, MDCK-II.
Data set [17] can be described thus: Cytotoxicity against MDCK2-MDR1 cells assessed as cell viability after 48 hrs by MTS assay. It is filed as ADME, cell-based. The conditions noted are these: Canis lupus familiaris, MDCK-II.
For data set [18], the system named is PBL. Kind of data set: Genotoxicity in human PBL at 0.6 to 12 mM by micronucleus test in presence of metabolic activation. Particulars: 12000 µM. It is filed as toxicity, cell-based.
Data set [19] deals with PBL. Kind of data set: Genotoxicity in human PBL at 0.6 to 12 mM by chromosome aberration test in absence of metabolic activation. The format is toxicity, cell-based. Particulars: 12000 µM.
For data set [20], the system named is PBL. Description: Genotoxicity in human PBL at 0.6 to 12 mM by micronucleus test in absence of metabolic activation. The format is toxicity, cell-based. The conditions noted are these: 12000 µM.
The nature of data set [21]: Chemical stability of compound in DMSO under open-vessel condition at 4 mg/ml at 60 degC after 3 days by 1H-NMR analysis. It is filed as physicochemical. The conditions noted are these: 72 h.
Data set [22] concerns PBL. Description: Genotoxicity in human PBL at 0.6 to 12 mM by chromosome aberration test in presence of metabolic activation. It is filed as toxicity, cell-based. The conditions noted are these: 12000 µM.

Data on two compounds can be found in ChEMBL document CHEMBL3797190, “Development of 3,5-Dinitrobenzylsulfanyl-1,3,4-oxadiazoles and Thiadiazoles as Selective Antitubercular Agents Active Against Replicating and Nonreplicating Mycobacterium tuberculosis” (J Med Chem, 2016).

Values after ≈ are worked out from the molar mass of the structure shown. Active and inactive are the calls of the source. The rule behind the calls is not given here.

For `Cc1ccc(-c2nnc(SCc3cc([N+](=O)[O-])cc([N+](=O)[O-])c3)o2)cc1`, the half-maximal inhibitory concentration (IC50) in data set [1] was more than 50 µM; in data set [9], more than 20 µM; in data set [10], more than 20 µM; in data set [16], more than 20 µM. In addition, in data set [2], the solubility at 24 h was determined as 0.067 µM (≈ 0.0249 µg/mL). Also, the selectivity ratio in data set [3] was more than 500. Moreover, the MIC99 in data set [4] and in [11] was not above 0.03 µM in each case. Besides, the MIC95 in [5], in data set [6] and in data set [8] was more than 125 µM throughout. Also, the viability at 48 h, 20 µM in [7] was found to be 53.1%. Besides, the “growth inhibition (GI)” value in [12] is “Active”. In addition, in [13], the inhibition of growth at 0.5 µg/mL is 36%. Besides, the MIC80 in data set [14] and in [15] was more than 125 µM each time.

In the case of `O=[N+]([O-])c1cc(CSc2nnc(-c3ccc(Cl)cc3)s2)cc([N+](=O)[O-])c1`, the half-maximal inhibitory concentration (IC50) is more than 50 µM in data set [1], more than 20 µM in [17], more than 20 µM in data set [10] and more than 20 µM in [16]. In data set [2], this compound yielded a solubility at 24 h of 0.03 µM (≈ 0.0123 µg/mL). In addition, in data set [3], the selectivity ratio was more than 500. In addition, the MIC99 in data set [4] and in data set [11] was 0.06 µM (≈ 0.0245 µg/mL) in each case. Also, the MIC95 in data set [5], in data set [6] and in data set [8] was more than 125 µM throughout. Besides, the Activity result in [18], in data set [19], in data set [20] and in data set [22] was “Non-toxic” throughout. Moreover, the viability at 48 h, 20 µM in data set [7] amounted to 43.4%. For the same compound, in data set [21], the Stability result is “Stable”. The “growth inhibition (GI)” value in [12] was “inactive”. For the same compound, the inhibition of growth at 0.5 µg/mL in data set [13] came out at 12%. Also, the MIC80 in data set [14] and in data set [15] was more than 125 µM in each case.

The term IC50 denotes the concentration needed to halve the response being measured. One may read the solubility as how much of the substance goes into solution per volume. Usually MIC99 stands for the lowest concentration that inhibits either 99% of growth or 99% of the strains tested, depending on the study. One may read the MIC80 as an inhibitory concentration at the 80% level, which refers to growth in some studies and to a panel of isolates in others. A high value points to weaker potency.
